For 1 compound, AChE inhibition results are on record in publication PMC8032624, “Prediction of dose-dependent in vivo acetylcholinesterase inhibition by profenofos in rats and humans using physiologically based kinetic (PBK) modeling-facilitated reverse dosimetry” (Archives of Toxicology, 2021).

This assay concerns the target AChE (Homo sapiens, UniProt P22303). Kind of assay: AChE inhibition by BCP. The class given is biochemical.

Sequence of AChE (P22303 32-614): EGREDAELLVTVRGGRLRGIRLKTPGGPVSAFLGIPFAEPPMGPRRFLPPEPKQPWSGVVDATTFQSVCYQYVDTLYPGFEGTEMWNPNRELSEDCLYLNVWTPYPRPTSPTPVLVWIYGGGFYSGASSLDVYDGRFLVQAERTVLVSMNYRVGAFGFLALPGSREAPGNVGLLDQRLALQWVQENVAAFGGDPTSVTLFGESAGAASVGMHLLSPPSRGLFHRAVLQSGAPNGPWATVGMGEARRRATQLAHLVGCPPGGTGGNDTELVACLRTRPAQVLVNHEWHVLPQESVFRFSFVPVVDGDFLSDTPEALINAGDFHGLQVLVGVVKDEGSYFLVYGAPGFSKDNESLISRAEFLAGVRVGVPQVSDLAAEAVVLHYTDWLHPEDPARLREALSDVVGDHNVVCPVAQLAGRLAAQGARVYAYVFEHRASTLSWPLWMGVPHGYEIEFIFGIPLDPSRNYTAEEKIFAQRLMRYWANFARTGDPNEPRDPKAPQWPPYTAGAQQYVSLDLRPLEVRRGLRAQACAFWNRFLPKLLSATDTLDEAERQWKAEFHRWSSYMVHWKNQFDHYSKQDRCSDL

`Oc1ccc(Br)cc1Cl` [BCP, 4-bromo-2-chlorophenol]: the AChE inhibition result is given as “not inhibit AChE”.
